According to patent US5840697A, “Peptide inhibitors of calmodulin” (Torrey Pines Institute for Molecular Studies, priority 1996, dated 1998):
pIC50: −log10 of the molar value. Where two headings read alike, the source gives them in different places. Square brackets hold non-standard residues; d marks the D form. Peptide text beside a SMILES is read from it.

Tests used:
calmodulin = calmodulin (Homo sapiens, UniProt P0DP23); assay: calcium-dependent phosphodiesterase assay (calmodulin activity); type: biochemical; settings: for SPECIFICITY: comparison of IC50 for phosphodiesterase with IC50 for calmodulin
Description: In the calcium dependent phosphodiesterase assay, calmodulin can be assayed by its ability to stimulate phosphodiesterase activity as determined by a two-step assay procedure illustrated by reactions (1) and (2) below. [drawing 1]
During the first step of the assay cyclic adenosine 3'5'-monophosphate (cAMP) is incubated with calcium-activated phosphodiesterase (Cal-PDE), which hydrolyses the 3'bond producing adenosine 5'-monophosphate (5'-AMP). During the second step, 5'-AMP is quantitatively converted into adenosine and inorganic phosphate (Pi) through the action of a 5-nucleotidase. The reaction is followed by the measurement of the Pi formed by reading the absorbance at 660 nm after reacting with ammonium molybdate. The amount of Pi formed is directly related to the phosphodiesterase activity which depends on the level of activation by calmodulin.
To sample assay tubes were added the following components: assay buffer, 25 ul; CaCl2, 5 ul; 5'-nucleotidase, 7.5 ul (stock solution is 10 units/ml); calmodulin 5 units; calmodulin inhibitor peptides to obtain the desired final concentration of 50 μM. The volume was then made up to 200 ul with water. Control blanks were prepared replacing the peptides with water. The added components were thoroughly mixed and the tubes incubated at 30° C. for 10 min. […] The samples were centrifuged to remove the protein precipitate and the 50 ul of the supernatant was withdrawn for phosphate measurement. […] The absorbance of the solution were read at 660 nm using water as a blank, identified as control "Calmo."
The two controls used in the assay, one without and one with calmodulin, as indicated in FIG. 1 and Table I were as follows,: (1) PDE:
These three controls were used in the calcium-dependent phosphodiesterase assay for reproducibility of the assay.
In addition to the calcium-dependent phosphodiesterase assay data, IC50 values were determined for many of the peptides. The assay carried out for the determination in the IC50 values differed from the above screening assay by the concentration of the peptides being tested.
(3) TFP: trifluoperazine; and (4) Calmidasolium: (1-[bis-(4-chlorophenyl)methyl]-3[-2-(2,4-dichlorophenyl)-2[(2,4-dichlorophenyl)methoxy]-ethyl]-1H-imidazolium chloride. The IC50 values were calculated using sigmoidal curve software (Graphpad, ISI; San Diego, Calif.) using the % inhibition at different mixture concentrations (see protocol for determination of % inhibition).
The (L)-amino acid counterpart for five (5) of the all (D)-amino acid peptides identified from the PS-SCL were synthesized in order to study the stereoselectivity of the inhibition.

[1] = tested on: normal rat kidney (NRK) cells; assay: DNA synthesis ([3H]-thymidine incorporation) in cell culture; type: cell-based; settings: added at 5 hr
Description: Following the methods described in Lopez-Girona et al., Cell Calcium, 18:30-40 (1995), which is incorporated herein by reference, the effect of calmodulin inhibitory peptides on DNA synthesis was investigated. Specifically, peptides were added to culture media and assessed for their ability to inhibit the progression of normal rat kidney (NRK) cells into the S phase of the cell cycle; the DNA synthesis phase into the cell growth cycle. Such inhibition has been shown for existing anti-calmodulin drugs such as W13.
NRK cells were made quiescent by growing them to confluence in Dulbecco's minimum essential medium supplemented with 5% fetal calf serum (FCS), and then kept for 3-4 days in the same medium but with only 0.5% FCS. To allow them to re-enter the cell cycle, quiescent cells were trypsinized and subcultured at a lower density in fresh medium supplemented with 5% FCS.
DNA synthesis was analyzed by the measurement of [^3 H]-thymidine into whole cell DNA. NRK cells (10^5 per 35 mm plate) were pulse labeled for 1 hr with [methyl-^3 H]-thymidine (5 Ci/mmol) at 4 μCi/ml in Dulbecco's minimum essential medium supplemented with 5% FCS. Precipitation and solubilization of DNA was carried out as described in Cripps-Wolfman et al., J. Biol. Chem., 264:19478-19486 (1989), which is incorporated herein by reference.
The NRK cells stimulated to proliferate by addition of 5% FCS enter synchronously into the cell cycle and start the S phase after 12 hr reaching a maximum between 18 to 20 hr. The peptides were added at 5 hr (time at which the cells have already reenter the G1 phase). […] Similar results were found between the (D)-amino acid peptides and their (L)-counterpart.

NRK cells = assay: long term stability: number of NRK cells at 48 hr after activation; type: cell-based, rat; settings: added at 5 hr, counted 48 hr after activation
From the text: The similar activity found for the (L)-amino acid peptides and (D)-amino acid peptides indicate that the inhibition of calmodulin occurs rapidly following the addition of the inhibitory peptides. The peptides' long term stability was then studied by adding Ac-(D)Leu-(D)Trp-(D)Arg-(D)Ile-(D)Leu-(D)Trp-NH2, Ac-Leu-Trp-Arg-Ile-Leu-Trp-NH2 (SEQ ID No. 48), W13 and W12 at 5 hr following the reentry of the NRK cells into the cell cycle and measuring the number of cells at 48 hr after activation.

phosphodiesterase = assay: calcium-dependent phosphodiesterase assay in the absence of calmodulin; type: biochemical; settings: Table III
Description: To sample assay tubes were added the following components: assay buffer, 25 ul; CaCl2, 5 ul; 5'-nucleotidase, 7.5 ul (stock solution is 10 units/ml); calmodulin 5 units; calmodulin inhibitor peptides to obtain the desired final concentration of 50 μM. The volume was then made up to 200 ul with water. Control blanks were prepared replacing the peptides with water. The added components were thoroughly mixed and the tubes incubated at 30° C. for 10 min. Then, 25 ul of cAMP at 10.8 mM was added and incubated for 90 min at 30° C. The reaction was stopped by the addition of 50 ul of 55% trichloroacetic acid (TCA). The samples were centrifuged to remove the protein precipitate and the 50 ul of the supernatant was withdrawn for phosphate measurement. To the supernatant aliquot, 50 ul ammonium molybdate (0.55% in 1.1 N sulfuric acid) was added, followed by the addition of 5 ul of reducing agent (24 g sodium bisulfite, 2.4 g sodium sulfite, 0.5 g of 1-amino-2-naphthol-4-sulfonic acid in 200 ml of water), and the contents were mixed by vortexing. The absorbance of the solution were read at 660 nm using water as a blank, identified as control "Calmo."
As described above, one of the undesirable biological effects of existing calmodulin inhibitors is their non-specific binding to other proteins and the like. Therefore, the specificity of the instant inhibitory peptides for calmodulin was examined. The specificity was determined using the calcium-dependent phosphodiesterase assay described in Example I. The assay was carried out for the determination of IC50 values in the presence of calmodulin (IC50 value for calmodulin) and in the absence of calmodulin (IC50 for phosphodiesterase), the latter of which provides the effect of the inhibitory peptides on the phosphodiesterase.

rat liver cells = assay: in vivo rat model: DNA synthesis of rat liver cells after partial hepatectomy; settings: intravenous injection 5 hours after partial hepatectomy, measured 24 hours post hepatectomy
From the text: The effect that calmodulin inhibitors have on DNA synthesis were also studied in vivo in a rat model. Rat liver cells are a useful in vivo system for studying synchronized cells and the cell cycle. By partial hepatectomy, the hepatocyte quiescent cells present in normal adult rat liver can be stimulated to enter the replicative cell cycle and the effect of inhibitors on the cycle analyzed. This example provides the effect of the subject calmodulin inhibitory peptides on the DNA synthesis of rat liver cells in partial hepatectomy stage following intra venal injection of the peptides.
Male Sprague-Dawley rats ([…]; 2 rats per peptide or control) were fasted overnight. Partial hepatectomies were carried out under Ketolar anesthesia (Parke-Davis; Ann Arbor, Mich.), following the procedure described by Higgins and Anderson in Arch. Pathol., 12:186-202 (1931), which is incorporated herein by reference. […] DNA synthesis was assessed by measuring the radioactivity incorporated into DNA following an intraperitoneal injection (0.5 mCi/g body weight) of [^3 H] thymidine 1 hr prior to killing the rat and at 23 hours post hepatectomy. […] The liver tissue was homogenized in 10% trifluoroacetic acid at 4° C. and the DNA extracted and its radioactivity measured following the procedure described by Burton, Biochem. J., 62:315-320 (1956), which is incorporated herein by reference. […]

[2] = Table I, assayed at 75, 50 and 12.5 μM, average of repeated assays, read-out: Average IC50

SMILES	pIC50 (calmodulin; [2])	% DNA SYNTHESIS ([1]; 30 μM)	number of cells relative to control cells (NRK cells)	IC50 (calmodulin; Table III, in the presence of calmodulin, read-out: IC50 (μM) for calmodulin)	SPECIFICITY (calmodulin)	IC50 (phosphodiesterase)	% DNA SYNTHESIS ([1]; 7.5 μM)	% DNA SYNTHESIS ([1]; 15 μM)	% DNA SYNTHESIS (rat liver cells)	calmodulin inhibitory activity, in words (calmodulin; (L)-amino acid peptides of Table II)	pIC50 (calmodulin; Table II, (L)-amino acid peptides, concentrations 0.2 to 50.0 μM, read-out: IC50)
NCCCCNS(=O)(=O)c1ccc2c(Cl)cccc2c1 [Peptide W13, N-(4-aminobutyl)-5-chloro-2-naphtalenesulfonamide, reference compound]	4.03	60%	significantly lower number of cells	–	–	–	–	–	–	–	–
CC[C@@H](C)[C@@H](NC(=O)[C@@H](CCC(N)=O)NC(=O)[C@@H](CC(C)C)NC(C)=O)C(=O)N[C@H](Cc1c[nH]cn1)C(=O)N[C@H](CC(C)C)C(=O)N[C@H](CCCNC(=N)N)C(N)=O [Ac-(D)Leu-(D)Gln-(D)Ile-(D)His-(D)Leu-(D)Arg-NH2] (Ac-[dL][dQ][dI][dH][dL][dR]-NH2)	4.15	–	–	43 µM	2.4	104 µM	100%	84%	100%	–	–
CC[C@H](C)[C@H](NC(=O)[C@H](CCCNC(=N)N)NC(=O)[C@H](Cc1c[nH]c2ccccc12)NC(=O)[C@H](CC(C)C)NC(C)=O)C(=O)N[C@@H](CC(C)C)C(=O)N[C@@H](Cc1c[nH]c2ccccc12)C(N)=O [Ac-Leu-Trp-Arg-Ile-Leu-Trp-NH2] (Ac-LWRILW-NH2)	–	–	the same number of cells	–	> 227	> 200 µM	–	–	–	especially high activity	6.06
NCCCCNS(=O)(=O)c1ccc2ccccc2c1 [Peptide W12, reference compound]	–	100%	the same number of cells	–	–	–	–	–	–	–	–
